Test results published in US20240301001A1, “PEPTIDE-CONTAINING COMPOSITION” (Kyoto University, priority 2021, published 2024).

Assays:
[1] = system: phosphorylated STAT3 signal; experiment: Intracellular leptin sensitivity in hypothalamic organ culture (phosphorylated STAT3 immunostaining); assay type: cell-based; settings: peptide 100 μM preincubation 24 hours, leptin 30 nM 1 hour
Method: Subsequently, formalin fixation was performed and the phosphorylated STAT3 signal was detected by an immunostaining chemistry method (N=6-7). […] The data were analyzed by one-way analysis of variance, followed by multiple comparisons by Tukey's test. […] The error bars represent standard error (n=6-8).

[2] = High-fat diet intake after oral administration under overnight fasting; assay type: in vivo; settings: male mice raised on high-fat diet (60% kcal fat)
Method: (§1) Male mice raised on a high-fat diet (60% kcal fat) were orally administered with the digested product under overnight fasting conditions, and the amount of food intake was measured over time (N=14-15). […] The data were analyzed by two-way analysis of variance, followed by multiple comparisons by Tukey's test. […] The error bars represent standard error (n=14-15).
The data were analyzed by two-way analysis of variance, followed by multiple comparisons by Tukey's test. […] The error bars represent standard error (n=9).
as §1, with “Rubisco-derived peptide YHIEPV” for “the digested product”, “(N=11).” for “(N=14-15).”, “the Bonferroni” for “Tukey's”, “(n=11).” for “(n=14-15).”
The data were analyzed by two-way analysis of variance, followed by multiple comparisons by Tukey's test. […] The error bars represent standard error (n=7-8).
The data were analyzed by two-way analysis of variance, followed by multiple comparisons by Tukey's test. In FIG. 10, the error bars represent standard error (n=5-7).

MC4 receptor = target: T1, MC4 receptor (Mus musculus, UniProt P56450); experiment: Impact of HS024 on high-fat diet intake suppression induced by oral YHIEPV; assay type: in vivo, mice; settings: YHIEPV oral plus HS024 intracerebroventricular; food intake 4 hours later
T1 construct: from tissue; host or cells: living male mice (whole animal)
Method: (§2) Male mice raised on a high-fat diet (60% kcal fat) were administered under overnight fasting conditions with YHIEPV (oral administration) and naltrindole (intraperitoneal administration), which is a δ opioid receptor inhibitor, or HS024 (intracerebroventricular administration), which is an MC4 receptor inhibitor, and the amount of food intake was measured 4 hours later (N=13-15). The δ opioid receptor and MC4 receptor are receptors involved in feeding behavior. […] The data were analyzed by one-way analysis of variance, followed by multiple comparisons by Tukey's test. […] The error bars represent standard error (n=13-15).

[3] = Fat mass (peritesticular and mesenteric fat) after five-week oral administration; assay type: in vivo, mice; settings: after five-week oral administration 0.3 mg/kg
Method: (§3) After the five-week oral administration of YHIEPV in Test Example 4, the blood was collected under anesthesia. Subsequently, the blood was centrifuged, and the serum was collected. The leptin level in the serum was determined by ELISA (according to the manufacturer's protocol) (N=10). The fat mass (peritesticular fat and mesenteric fat) was also measured at the same time as blood sampling (N=9). […] The data were analyzed by t-test. […] The error bars represent standard error (n=9-10).

[4] = Long-term oral administration: body weight gain caused by high-fat diet; assay type: in vivo; settings: 0.3 mg/kg oral once a day, male mice on high-fat diet
Method: Male mice raised for at least one month on a high-fat diet (60% kcal fat) were orally administered with YHIEPV (0.3 mg/kg) once a day. The body weight and the amount of food intake were measured daily, and the amount of food intake was calculated as cumulative food intake (N=10). […] The data were analyzed by two-way analysis of variance, followed by multiple comparisons by the Bonferroni test. […] The error bars represent standard error (n=10).

[5] = previously discovered, PTL 2; cited from earlier work
[6] = Anti-obesity effect of intracerebroventricularly administered leptin with oral YHIEPV; assay type: in vivo, mice; settings: YHIEPV 0.3 mg/kg oral, leptin 0.5 μg intracerebroventricular
Method: A guide cannula was placed in the lateral ventricle of male mice raised on a high-fat diet (60% kcal fat) for at least one month, and a recovery period of at least 1 week was then provided. Subsequently, the body weight change and the amount of food intake were measured after the addition of YHIEPV (0.3 mg/kg, oral administration) and leptin (0.5 μg, intracerebroventricular administration) (N=10-12). […] The data were analyzed by two-way analysis of variance, followed by multiple comparisons by Tukey's test. […] The error bars represent standard error (n=10-12).

leptin = experiment: Serum leptin level by ELISA after five-week oral administration; assay type: in vivo, mice; settings: after five-week oral administration 0.3 mg/kg
Method: as §3

Active Rap1 = Active Rap1 pull-down assay in brain; assay type: in vivo, mice; settings: 0.3 mg/kg oral for 5 days
Method: (§4) Male mice were raised for at least one month on a high-fat diet (60% kcal fat) and were orally administered with YHIEPV (0.3 mg/kg) for 5 days, and hypothalamic and brain samples were then collected. The expression levels of genes associated with leptin resistance (SOCS-3, PTP1B, and TCPTP) and inflammatory cytokines (IL-6, IL1β, TNFα) in the hypothalamus were measured by RT-qPCR. Active Rap1 in the brain was quantified by using the Active Rap1 Pull-down assay kit and the Detection Kit according to the manufacturer's protocol (N=4). […] The data were analyzed by t-test. […] The error bars represent standard error (n=4).

[7] = system: phosphorylated STAT3 signal; experiment: Leptin resistance induced by Forskolin (Rap1 pathway stimulation) in hypothalamic organ culture; assay type: cell-based; settings: Forskolin 20 μM and YHIEPV 100 μM 6 hours, leptin 60 nM 1 hour
Method: A hypothalamic organ culture system was preincubated with Forskolin (20 μM) and YHIEPV (100 μM) for 6 hours, followed by leptin stimulation (60 nM) for 1 hour. Subsequently, formalin fixation was performed and the phosphorylated STAT3 signal was detected by an immunostaining chemistry method (N=6-7). Forskolin is known to induce leptin resistance via the Rap1 activation pathway. […] The data were analyzed by one-way analysis of variance, followed by multiple comparisons by Tukey's test. […] The error bars represent standard error (n=5-9).

δ opioid receptor = target: T2, δ opioid receptor (Mus musculus, UniProt P32300); experiment: Impact of naltrindole on high-fat diet intake suppression induced by oral YHIEPV; assay type: in vivo, mice; settings: YHIEPV oral plus naltrindole intraperitoneal; food intake 4 hours later
T2 construct: from tissue; host or cells: living male mice (whole animal)
Method: as §2

PTP1B = experiment: Hypothalamic gene expression by RT-qPCR after high-fat diet; assay type: in vivo, mice; settings: hypothalamus, 0.3 mg/kg oral for 5 days
Method: as §4

IL1β = experiment: as above; assay type: in vivo, mice; settings: hypothalamus, 0.3 mg/kg oral for 5 days
Method: as §4

IL-6 = experiment: as above; assay type: in vivo, mice; settings: hypothalamus, 0.3 mg/kg oral for 5 days
Method: as §4

SOCS-3 = experiment: as above; assay type: in vivo, mice; settings: hypothalamus, 0.3 mg/kg oral for 5 days
Method: as §4

TCPTP = experiment: as above; assay type: in vivo, mice; settings: hypothalamus, 0.3 mg/kg oral for 5 days
Method: as §4

TNFα = experiment: as above; assay type: in vivo, mice; settings: hypothalamus, 0.3 mg/kg oral for 5 days
Method: as §4

T2 sequence (P32300 whole entry): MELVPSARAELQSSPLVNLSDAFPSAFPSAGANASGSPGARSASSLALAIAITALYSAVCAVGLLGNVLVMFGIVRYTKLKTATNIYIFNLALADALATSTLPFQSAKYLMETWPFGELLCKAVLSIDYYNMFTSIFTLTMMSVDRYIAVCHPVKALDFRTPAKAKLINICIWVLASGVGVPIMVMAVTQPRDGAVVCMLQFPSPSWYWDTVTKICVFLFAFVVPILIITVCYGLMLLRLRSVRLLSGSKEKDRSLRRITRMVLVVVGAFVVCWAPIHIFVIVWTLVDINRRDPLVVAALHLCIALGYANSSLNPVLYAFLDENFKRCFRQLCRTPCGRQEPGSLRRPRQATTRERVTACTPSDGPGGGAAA
T1 sequence (P56450 whole entry): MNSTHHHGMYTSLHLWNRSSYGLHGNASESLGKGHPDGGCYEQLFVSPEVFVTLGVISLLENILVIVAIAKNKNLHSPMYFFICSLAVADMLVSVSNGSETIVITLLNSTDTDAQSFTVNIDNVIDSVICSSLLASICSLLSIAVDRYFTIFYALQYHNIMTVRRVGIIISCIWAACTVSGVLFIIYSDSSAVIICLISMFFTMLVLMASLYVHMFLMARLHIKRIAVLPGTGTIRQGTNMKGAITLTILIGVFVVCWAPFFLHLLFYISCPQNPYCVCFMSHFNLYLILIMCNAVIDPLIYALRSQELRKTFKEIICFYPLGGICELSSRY

Substance	intracellular leptin sensitivity in the hypothalamus [1]	high-fat diet intake (amount of food intake over time) [2]	effect of suppressing high-fat diet intake in presence of MC4 receptor inhibitor (MC4 receptor)	fat mass [3]	body weight gain caused by a high-fat diet [4]	anxiolytic effect [5]	anti-obesity effect of intracerebroventricularly administered leptin (body weight change, food intake) [6]	blood leptin level (leptin)	expression level of active Rap1 (Active Rap1)	leptin resistance induced by Forskolin [7]	effect of suppressing high-fat diet intake in presence of δ opioid receptor inhibitor (δ opioid receptor)	expression level of PTP1B (PTP1B)	expression level of IL1β (IL1β)	expression level of IL-6 (IL-6)	expression level of SOCS-3 (SOCS-3)	expression level of TCPTP (TCPTP)	expression level of TNFα (TNFα)
YKLTY (listed as Spinacia oleracea) [Rubisco-derived peptide, synthesized by solid-phase Fmoc method; contained in green leaf Rubisco digested product B]	enhanced	suppressed high-fat diet intake	–	–	–	–	–	–	–	–	–	–	–	–	–	–	–
YHIEPV (listed as Spinacia oleracea)	enhanced	suppressed high-fat diet intake	inhibited	trend toward decrease	suppressed body weight gain	anxiolytic effect	enhanced	decreased	significantly decreased	improved	inhibited	decreasing trend	significantly decreased	decreasing trend	significantly decreased	significantly decreased	decreasing trend
